Earlier results as cited in PMC9475448, “What a difference a methylene makes: replacing Glu with Asp or Aad in the Lys-urea-Glu pharmacophore of PSMA-targeting radioligands to reduce kidney and salivary gland uptake” (Theranostics, 2022).

How the values were obtained:
parotid gland = settings: in vivo; cited from earlier work
PSMA = target: T1, PSMA (Homo sapiens, UniProt Q04609); set-up: method as in PMID 30251544; settings: same assay conditions, reported previously; cited from earlier work
T1 construct: LNCaP cells (400,000/well) were plated onto a 24-well poly-D-lysine coated plate for 48 h; endogenous in cells; host or cells: LNCaP prostate cancer cells
T1 sequence (Q04609 whole entry): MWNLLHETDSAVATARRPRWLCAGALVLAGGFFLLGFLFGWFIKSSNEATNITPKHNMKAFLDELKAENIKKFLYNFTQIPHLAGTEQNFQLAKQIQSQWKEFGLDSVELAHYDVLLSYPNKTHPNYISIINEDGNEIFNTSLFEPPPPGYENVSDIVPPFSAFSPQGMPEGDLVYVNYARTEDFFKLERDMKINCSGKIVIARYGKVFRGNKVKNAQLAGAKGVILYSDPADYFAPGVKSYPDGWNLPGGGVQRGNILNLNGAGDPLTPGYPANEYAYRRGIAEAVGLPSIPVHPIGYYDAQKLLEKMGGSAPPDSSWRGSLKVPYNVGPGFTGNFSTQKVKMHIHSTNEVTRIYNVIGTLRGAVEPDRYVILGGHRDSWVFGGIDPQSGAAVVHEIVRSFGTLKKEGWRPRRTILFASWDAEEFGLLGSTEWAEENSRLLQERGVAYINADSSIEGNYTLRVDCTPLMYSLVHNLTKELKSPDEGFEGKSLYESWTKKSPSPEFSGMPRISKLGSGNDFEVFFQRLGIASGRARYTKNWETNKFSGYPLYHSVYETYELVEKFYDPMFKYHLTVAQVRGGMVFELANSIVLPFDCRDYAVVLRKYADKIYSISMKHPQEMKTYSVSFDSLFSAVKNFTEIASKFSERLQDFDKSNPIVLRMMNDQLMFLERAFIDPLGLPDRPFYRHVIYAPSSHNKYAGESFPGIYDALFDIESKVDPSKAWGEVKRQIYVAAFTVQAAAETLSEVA

In the case of botulinum toxin A, the “Reduction in SUVmean of the treated parotid gland in [68Ga]Ga-PSMA-11 scan vs baseline” value (parotid gland) is listed as “up to 64%”.

In the case of `O=C([O-])CN1CCN(CC(=O)[O-])CCN(CC(=O)NCC2CCC(C(=O)N[C@@H](Cc3ccc4ccccc4c3)C(=O)NCCCC[C@H](NC(=O)N[C@@H](CCC(=O)O)C(=O)O)C(=O)O)CC2)CCN(CC(=O)[O-])CC1.[Lu+3]` (some centres unmarked) [Lu-PSMA-617], the Ki (PSMA) is listed as 0.24 ± 0.06 nM.
